Data as given in patent US9657071B2, “IgE peptide vaccine” (NIPPON ZENYAKU KOGYO CO., LTD., priority 2012, dated 2017).

Assays:
[1] = system: Dog subjected to P-K test; test: Prausnitz-Kustner (P-K) test; format: in vivo; conditions: conclusion of P-K test
Method: The P-K test refers to a method for qualitatively evaluating antigen-specific IgE in test serum and employs additional antigen-unsensitized individuals. The test is summarized as follows:
1) Antigen-unsensitized animals are prepared as animals subjected to the P-K test.
2) Test serum or serum of a healthy animal (control) is intracutaneously administered to the animals subjected to the P-K test. When antigen-specific IgE is present in the test serum, the IgE binds to the surface of mast cells in the skins of the animals subjected to the P-K test within 48 hours after the administration.
3) 48 hours after the serum administration, an antigen solution is intracutaneously administered to the same sites as above. When antigen-specific IgE is present in the test serum, the antigen binds to the antigen-specific IgE bound with the surface of mast cells to form IgE cross-linking. This triggers the degranulation of the mast cells, resulting in flare confirmed in the skins.
The administration group and the non-administration group differed most largely in their serum Der f 2-specific IgE concentrations at day 77 (7 days after the second sensitization) when the effects of the test substance were thus confirmed to be maximized. […]

Der f 2-specific IgE = test: Prevention experiment in rats: Der f 2-specific IgE (ELISA); format: in vivo; conditions: rat, 50 μg three times, then Der f 2 + alum
Method: Der f 2 was prepared at 1 μg/mL in an immobilization buffer (0.05 M carbonate buffer, pH 9.6), then added at a concentration of 100 μL/well to an ELISA plate, and left overnight at 4° C. The immobilization plate was washed once with PBS-T (0.05%). A blocking solution (4× Block Ace, Snow Brand Milk Products Co., Ltd.; UK-B80) was added thereto at a concentration of 200 μL/well. The plate was blocked by incubation at 37° C. for 1.5 hours. The serum was diluted 20-fold with a diluent (PBS-T:Block Ace=9:1) and used. The plate was reacted with the serum at 37° C. for 1.5 hours and washed three times with PBS-T (0.05%). An anti-rat IgE antibody (Rabbit anti-Rat IgE HRP; Invitrogen Corp., 61-9520) was diluted 1000-fold with a diluent and added thereto as a secondary antibody at a concentration of 100 μL/well. After reaction at 37° C. for 1.5 hours, the plate was washed three times with PBS-T (0.05%). […] Then, the measurement was performed using a plate reader (Bio-Rad Laboratories, Inc.; model 680) (dual: measurement: 450 nm, control: 570 nm). […]
Blood was collected every 2 weeks from the administer start date. […] Serum was collected, and an IgG antibody against dog IgE was evaluated by ELISA (FIG. 16). […]

Row | Sequence | effect of vaccine-induced IgG on binding of IgE to mast cells [1] | Der f 2-specific IgE production compared with the control group (saline) (Der f 2-specific IgE; intravenous) | Der f 2-specific IgE production compared with the control group (saline) (Der f 2-specific IgE; subcutaneous (group 2))
1 | QEKKTSVSASQWYTKHHNNATTSIT (listed as Mus musculus) [MOUSE CH3-4-17-11] | blocks the binding of the IgE to mast cells | – | –
2 | KKTSVSASQWYTKHHNNATT (listed as Mus musculus) [M4-7-11] | – | inhibition of IgE production was confirmed | inhibition of IgE production was remarkably confirmed
